Measurements as given in US20100249193A1, “Nematicidal, Insecticidal and Acaricidal Active Ingredient Combinations Comprising Pyridyl-ethylbenzamides and Insecticides” (Bayer CropScience AG, priority 2009, published 2010).

Test system: Meloidogyne incognita
Experiment: Meloidogyne incognita test (MELGIN), gall formation on salad seedlings in sand
Format: in vivo
Conditions: 0% = galls equal to untreated control
Description: Meloidogyne incognita—Test (MELGIN)
To produce a suitable preparation of active compound, 1 part by weight of active compound is mixed with the stated amount of solvent, and the concentrate is diluted with emulsifier-containing water to the desired concentration.
Vessels are filled with sand, a solution of the active ingredient, a suspension containing eggs and larvae of Meloidogyne incognita and salad seeds. The salad seeds germinate and the seedlings grow. Galls develop on the roots.
After the specified period the nematicidal activity is determined on the basis of the percentage of gall formation. 100% means that no galls were found; 0% means that the number of galls found on the roots of the treated plants was equal to that in untreated control plants.

SMILES | Gall-formation efficacy in % after 21 d (100% = no galls) (0.125 ppm) | Gall-formation efficacy in % after 21 d (100% = no galls) (4 ppm)
O=C(NCCc1ncc(C(F)(F)F)cc1Cl)c1ccccc1C(F)(F)F [Fluopyram, N-{2-[3-chloro-5-(trifluoromethyl)-2-pyridinyl]ethyl}-2-trifluoromethylbenzamide] | 56% | –
CNC(=O)c1cc(C#N)cc(C)c1NC(=O)c1cc(Br)nn1-c1ncccc1Cl [Cyazypyr, cyazypyr] | – | 6%
